pIC50: −log10 of the molar value.
What follows are compounds tested against T1, USP25 (USP25-His6, Boston Biochem E-546) (Homo sapiens, UniProt Q9UHP3) (assay: Ubiquitin-Rhodamine 110 Assay for USP25 Activity, Example A-2). Settings: Ubiquitin-Rhodamine 110 assay, Example A-2; read-out: USP25 A-2 IC50 range.
T1 construct: His6; purchased Boston Biochem E-546
T1 sequence (Q9UHP3 1-1055): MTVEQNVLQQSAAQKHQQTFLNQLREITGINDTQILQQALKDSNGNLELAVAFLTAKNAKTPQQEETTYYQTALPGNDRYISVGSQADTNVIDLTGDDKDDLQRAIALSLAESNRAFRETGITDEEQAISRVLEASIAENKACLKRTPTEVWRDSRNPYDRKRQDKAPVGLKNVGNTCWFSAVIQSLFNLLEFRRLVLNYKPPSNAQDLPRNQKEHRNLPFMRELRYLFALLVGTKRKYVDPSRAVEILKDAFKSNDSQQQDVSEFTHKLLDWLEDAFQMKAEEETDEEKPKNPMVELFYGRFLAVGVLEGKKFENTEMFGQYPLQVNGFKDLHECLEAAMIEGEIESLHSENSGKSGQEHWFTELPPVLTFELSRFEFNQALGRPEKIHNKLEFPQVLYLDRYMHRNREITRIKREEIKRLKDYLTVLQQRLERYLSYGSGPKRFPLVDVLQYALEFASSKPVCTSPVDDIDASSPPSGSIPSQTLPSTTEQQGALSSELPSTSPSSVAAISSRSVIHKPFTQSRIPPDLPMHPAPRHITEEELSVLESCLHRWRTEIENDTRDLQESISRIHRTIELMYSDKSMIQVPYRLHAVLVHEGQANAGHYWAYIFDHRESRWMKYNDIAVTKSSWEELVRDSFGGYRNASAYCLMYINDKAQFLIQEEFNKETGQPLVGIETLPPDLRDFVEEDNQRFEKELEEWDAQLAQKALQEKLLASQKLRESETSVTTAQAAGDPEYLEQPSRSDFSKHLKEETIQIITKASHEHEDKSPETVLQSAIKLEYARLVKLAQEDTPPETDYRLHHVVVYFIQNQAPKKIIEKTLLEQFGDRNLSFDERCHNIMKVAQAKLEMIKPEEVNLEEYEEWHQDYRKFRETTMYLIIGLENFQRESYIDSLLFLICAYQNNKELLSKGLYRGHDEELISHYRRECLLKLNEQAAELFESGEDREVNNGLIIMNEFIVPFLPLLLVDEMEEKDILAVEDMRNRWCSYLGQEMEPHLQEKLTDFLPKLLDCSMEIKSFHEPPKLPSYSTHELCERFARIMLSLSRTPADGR
Format: biochemical
Summary of the method: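 Fluorescence (ex 485, em 535 nm) of cleaved ubiquitin-rhodamine 110 (25 nM, below Km) gave IC50 via 4-parameter logistic fit. Reaction: 45 min, room temperature, citric acid stop, after 30 min compound preincubation with 75 pM USP25-His6 in 20 mM Tris pH 8.0, 3 mM BME, 0.03% BGG, 0.01% Triton X-100; top dose 25 μM.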
With CO[C@H]1CN(c2cc(F)c3c(c2)CC[C@@H](NC(=O)c2sc4nc(C)ccc4c2N)C3)C[C@@H]1N [Example 137, 3-amino-N-[(2R)-6-[(3S,4S)-3-amino-4-methoxypyrrolidin-1-yl]-8-fluoro-1,2,3,4-tetrahydronaphthalen-2-yl]-6-methylthieno[2,3-b]pyridine-2-carboxamide] the pIC50 was less than 5.70. With CCn1ccc2cc(C(=O)N[C@H]3CCc4cc(N5C[C@H](OC)[C@@H](N)C5)cc(F)c4C3)nnc21 [Example 138, N-[(2S)-6-[(3S,4S)-3-amino-4-methoxypyrrolidin-1-yl]-8-fluoro-1,2,3,4-tetrahydronaphthalen-2-yl]-7-ethyl-7H-pyrrolo[2,3-c]pyridazine-3-carboxamide] the pIC50 was less than 5.70. Compound CCn1ccc2cc(C(=O)N[C@@H]3CCc4cc(N5C[C@H](OC)[C@@H](N)C5)cc(F)c4C3)nnc21 [Example 139, N-[(2R)-6-[(3S,4S)-3-amino-4-methoxypyrrolidin-1-yl]-8-fluoro-1,2,3,4-tetrahydronaphthalen-2-yl]-7-ethyl-7H-pyrrolo[2,3-c]pyridazine-3-carboxamide] has a pIC50 of less than 5.70. Cc1ccc2c(N)c(C(=O)N[C@H]3COc4cc(N5C[C@H](OC6CC6)[C@@H](N)C5)ccc4C3)sc2n1 [Example 140, 3-amino-N-[(3R)-7-[(3S,4S)-3-amino-4-cyclopropoxypyrrolidin-1-yl]-3,4-dihydro-2H-1-benzopyran-3-yl]-6-methylthieno[2,3-b]pyridine-2-carboxamide] showed a pIC50 of 5.70 to 6.70. Work on Cc1ccc2c(N)c(C(=O)N[C@H]3COc4cc(N5C[C@H](OC6CCC6)[C@@H](N)C5)ccc4C3)sc2n1 [Example 141, 3-amino-N-[(3R)-7-[(3S,4S)-3-amino-4-cyclobutoxypyrrolidin-1-yl]-3,4-dihydro-2H-1-benzopyran-3-yl]-6-methylthieno[2,3-b]pyridine-2-carboxamide] yielded a pIC50 of 6.70 to 7.30. CCO[C@H]1CN(c2ccc3c(n2)CC[C@H](NC(=O)c2sc4nc(C)ccc4c2N)C3)C[C@@H]1N [Example 142, 3-amino-N-[(6S)-2-[(3S,4S)-3-amino-4-ethoxypyrrolidin-1-yl]-5,6,7,8-tetrahydroquinolin-6-yl]-6-methylthieno[2,3-b]pyridine-2-carboxamide] gave a pIC50 of less than 5.70. Work on CO[C@@H]1CN(c2ccc3c(c2)CC[C@H](NC(=O)c2sc4nc(C)ccc4c2N)C3)C[C@@H]1N [Example 143, 3-amino-N-[(2S)-6-[(3S,4R)-3-amino-4-methoxypyrrolidin-1-yl]-1,2,3,4-tetrahydronaphthalen-2-yl]-6-methylthieno[2,3-b]pyridine-2-carboxamide] yielded a pIC50 of 5.70 to 6.70. CO[C@@H]1CN(c2cc(F)c3c(c2)OC[C@H](NC(=O)c2sc4nc(C)ccc4c2N)C3)C[C@@H]1N [Example 145, 3-amino-N-[(3R)-7-[(3S,4R)-3-amino-4-methoxypyrrolidin-1-yl]-5-fluoro-3,4-dihydro-2H-1-benzopyran-3-yl]-6-methylthieno[2,3-b]pyridine-2-carboxamide] showed a pIC50 of 5.70 to 6.70. For CO[C@H]1CN(c2cc(F)c3c(c2)OC[C@H](NC(=O)c2sc4nc(C)ccc4c2N)C3)C[C@H]1N [Example 146], the pIC50 was 5.70 to 6.70. CO[C@H]1CN(c2ccc3c(c2)OC[C@H](NC(=O)c2sc4nc(C)cnc4c2N)C3)C[C@H]1N [Example 148, 7-amino-N-[(3R)-7-[(3R,4S)-3-amino-4-methoxypyrrolidin-1-yl]-3,4-dihydro-2H-1-benzopyran-3-yl]-3-methylthieno[2,3-b]pyrazine-6-carboxamide] gave a pIC50 of 5.70 to 6.70. CO[C@@H]1CN(c2ccc3c(c2)OC[C@H](NC(=O)c2sc4nc(C)sc4c2N)C3)C[C@@H]1N [Example 149, 6-amino-N-[(3R)-7-[(3S,4R)-3-amino-4-methoxypyrrolidin-1-yl]-3,4-dihydro-2H-1-benzopyran-3-yl]-2-methylthieno[2,3-d][1,3]thiazole-5-carboxamide] was tested, and the pIC50 was 5.70 to 6.70. Work on CO[C@H]1CN(c2ccc3c(c2)OC[C@H](NC(=O)c2sc4nc(C)sc4c2N)C3)C[C@H]1N [Example 150] yielded a pIC50 of 5.70 to 6.70. In the case of CCO[C@@H]1CN(c2ccc3c(c2)OC[C@H](NC(=O)c2sc4nc(C)ccc4c2N)C3)C[C@@H]1N [Example 151, 3-amino-N-[(3R)-7-[(3S,4R)-3-amino-4-ethoxypyrrolidin-1-yl]-3,4-dihydro-2H-1-benzopyran-3-yl]-6-methylthieno[2,3-b]pyridine-2-carboxamide], the pIC50 was 5.70 to 6.70. With CCO[C@H]1CN(c2ccc3c(c2)OC[C@H](NC(=O)c2sc4nc(C)ccc4c2N)C3)C[C@H]1N [Example 152] the pIC50 was 5.70 to 6.70. Compound Cc1ccc2c(N)c(C(=O)N[C@H]3COc4cc(N5C[C@@H]6NCCO[C@@H]6C5)ccc4C3)sc2n1 [Example 153, N-[(3R)-7-[(4aS,7aR)-octahydropyrrolo[3,4-b]morpholin-6-yl]-3,4-dihydro-2H-1-benzopyran-3-yl]-3-amino-6-methylthieno[2,3-b]pyridine-2-carboxamide] has a pIC50 of 5.70 to 6.70. Compound Cc1ccc2c(N)c(C(=O)N[C@H]3COc4cc(N5C[C@@H]6OCCN[C@@H]6C5)ccc4C3)sc2n1 [Example 154, N-[(3R)-7-[(4aR,7aS)-octahydropyrrolo[3,4-b]morpholin-6-yl]-3,4-dihydro-2H-1-benzopyran-3-yl]-3-amino-6-methylthieno[2,3-b]pyridine-2-carboxamide] has a pIC50 of 5.70 to 6.70. COC[C@@H]1CNCCN1c1ccc2c(c1)OC[C@H](NC(=O)c1sc3nc(C)ccc3c1N)C2 [Example 155, 3-amino-N-[(3R)-7-[(2S)-2-(methoxymethyl)piperazin-1-yl]-3,4-dihydro-2H-1-benzopyran-3-yl]-6-methylthieno[2,3-b]pyridine-2-carboxamide] was tested, and the pIC50 was 6.70 to 7.30. COC[C@H]1CNCCN1c1ccc2c(c1)OC[C@H](NC(=O)c1sc3nc(C)ccc3c1N)C2 [Example 156, 3-amino-N-[(3R)-7-[(21)-2-(methoxymethyl)piperazin-1-yl]-3,4-dihydro-2H-1-benzopyran-3-yl]-6-methylthieno[2,3-b]pyridine-2-carboxamide] showed a pIC50 of 5.70 to 6.70. Work on COC[C@H]1CN(c2ccc3c(c2)OC[C@H](NC(=O)c2sc4nc(C)ccc4c2N)C3)CCN1 [Example 157, 3-amino-N-[(3R)-7-[(3R)-3-(methoxymethyl)piperazin-1-yl]-3,4-dihydro-2H-1-benzopyran-3-yl]-6-methylthieno[2,3-b]pyridine-2-carboxamide] yielded a pIC50 of 5.70 to 6.70. For COC[C@@H]1CN(c2ccc3c(c2)OC[C@H](NC(=O)c2sc4nc(C)ccc4c2N)C3)CCN1 [Example 158, 3-amino-N-[(3R)-7-[(3S)-3-(methoxymethyl)piperazin-1-yl]-3,4-dihydro-2H-1-benzopyran-3-yl]-6-methylthieno[2,3-b]pyridine-2-carboxamide], the pIC50 was 5.70 to 6.70. Cc1cc(C)c2c(N)c(C(=O)N[C@H]3COc4cc(N5CCNCC5)c(F)c(F)c4C3)sc2n1 [Example 159, 3-amino-N-[(3R)-5,6-difluoro-7-(piperazin-1-yl)-3,4-dihydro-2H-1-benzopyran-3-yl]-4,6-dimethylthieno[2,3-b]pyridine-2-carboxamide] was tested, and the pIC50 was less than 5.70. Cc1cc(C)c2c(N)c(C(=O)N[C@@H]3COc4cc(N5CCNCC5)c(F)c(F)c4C3)sc2n1 [Example 160, 3-amino-N-[(3S)-5,6-difluoro-7-(piperazin-1-yl)-3,4-dihydro-2H-1-benzopyran-3-yl]-4,6-dimethylthieno[2,3-b]pyridine-2-carboxamide] gave a pIC50 of 5.70 to 6.70.

— US11524966B1 (Valo Early Discovery, Inc., priority 2017, dated 2022)
